Test system: not listed separately
Assay: Antiproliferative activity against human BT549 cells assessed as cell growth at 10^-4 M after 48 hrs by sulforhodamine B assay
Assay type: functional
Settings: BT-549, 48 h, read-out: Activity

Row | Structure (SMILES) | growth at 100 µM [%]
1 | CNC(=O)c1cc(Oc2ccc3nc(NC(=O)c4cc(C(F)(F)F)cc(C(F)(F)F)c4)sc3c2)ccn1 | -48

Test system: HT-29
Assay: Antiproliferative activity against human HT-29 cells assessed as cell growth at 10^-8 M after 48 hrs by sulforhodamine B assay
Assay type: functional
Settings: HT-29, 48 h, read-out: Activity

Row | Structure (SMILES) | growth at 0.01 µM [%]
2 | CNC(=O)c1cc(Oc2ccc3nc(NC(=O)c4cc(C(F)(F)F)cc(C(F)(F)F)c4)sc3c2)ccn1 | 108

Test system: NCI-H322M
Assay: Antiproliferative activity against human NCI-H322M cells assessed as cell growth at 10^-4 M after 48 hrs by sulforhodamine B assay
Assay type: functional
Settings: read-out: Activity

Row | Structure (SMILES) | growth at 100 µM [%]
3 | CNC(=O)c1cc(Oc2ccc3nc(NC(=O)c4cc(C(F)(F)F)cc(C(F)(F)F)c4)sc3c2)ccn1 | -42

Test system: not listed separately
Assay: Antiproliferative activity against human OVCAR3 cells assessed as cell growth at 10^-4 M after 48 hrs by sulforhodamine B assay
Assay type: functional
Settings: OVCAR-3, 48 h, read-out: Activity

Row | Structure (SMILES) | growth at 100 µM [%]
4 | CNC(=O)c1cc(Oc2ccc3nc(NC(=O)c4cc(C(F)(F)F)cc(C(F)(F)F)c4)sc3c2)ccn1 | -79

Biological target: Serine/threonine-protein kinase B-raf (Homo sapiens, UniProt P15056, V600E)
Assay: Inhibition of BRAF V600E mutant (unknown origin) measured after 40 mins by scintillation counting
Settings: not given

Chain of Serine/threonine-protein kinase B-raf (P15056 2-766 V600E limits assumed): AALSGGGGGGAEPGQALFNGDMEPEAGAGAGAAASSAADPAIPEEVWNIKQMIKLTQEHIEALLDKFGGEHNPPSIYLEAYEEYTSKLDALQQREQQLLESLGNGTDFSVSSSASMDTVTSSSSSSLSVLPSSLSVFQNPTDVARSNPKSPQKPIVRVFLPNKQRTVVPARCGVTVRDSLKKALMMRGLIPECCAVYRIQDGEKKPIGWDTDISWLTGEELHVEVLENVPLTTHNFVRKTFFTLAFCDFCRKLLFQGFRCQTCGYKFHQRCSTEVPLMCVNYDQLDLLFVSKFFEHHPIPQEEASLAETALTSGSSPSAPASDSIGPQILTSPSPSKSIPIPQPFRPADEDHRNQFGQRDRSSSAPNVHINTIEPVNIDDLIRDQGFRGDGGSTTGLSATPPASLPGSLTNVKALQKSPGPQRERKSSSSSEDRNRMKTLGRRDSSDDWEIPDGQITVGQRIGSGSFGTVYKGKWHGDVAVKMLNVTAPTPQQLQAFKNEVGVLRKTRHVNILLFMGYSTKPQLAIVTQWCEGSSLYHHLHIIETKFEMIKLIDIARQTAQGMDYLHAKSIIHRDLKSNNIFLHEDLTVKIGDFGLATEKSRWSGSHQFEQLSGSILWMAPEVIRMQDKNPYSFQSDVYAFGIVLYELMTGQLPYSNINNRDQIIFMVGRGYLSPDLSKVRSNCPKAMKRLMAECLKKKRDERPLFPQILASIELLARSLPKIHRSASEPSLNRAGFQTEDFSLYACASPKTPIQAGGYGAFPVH

Row | Structure (SMILES) | IC50 [µM]
5 | CNC(=O)c1cc(Oc2ccc3nc(NC(=O)c4cc(C(F)(F)F)cc(C(F)(F)F)c4)sc3c2)ccn1 | 4.3

Test system: not listed separately
Assay: Antiproliferative activity against human RXF393 cells assessed as cell growth at 10^-6 M after 48 hrs by sulforhodamine B assay
Assay type: functional
Settings: RXF 393, 48 h, read-out: Activity

Row | Structure (SMILES) | growth at 1 µM [%]
6 | CNC(=O)c1cc(Oc2ccc3nc(NC(=O)c4cc(C(F)(F)F)cc(C(F)(F)F)c4)sc3c2)ccn1 | 97

Test system: not listed separately
Assay: Antiproliferative activity against human UACC62 cells assessed as cell growth at 10^-7 M after 48 hrs by sulforhodamine B assay
Assay type: functional
Settings: UACC-62, 48 h, read-out: Activity

Row | Structure (SMILES) | growth at 0.1 µM [%]
7 | CNC(=O)c1cc(Oc2ccc3nc(NC(=O)c4cc(C(F)(F)F)cc(C(F)(F)F)c4)sc3c2)ccn1 | 86

Test system: SK-MEL-5
Assay: Antiproliferative activity against human SK-MEL-5 cells assessed as growth inhibition after 48 hrs by sulforhodamine B assay
Assay type: functional
Settings: SK-MEL-5, 48 h

Row | Structure (SMILES) | GI50 [µM] | TGI [µM]
8 | CNC(=O)c1cc(Oc2ccc3nc(NC(=O)c4cc(C(F)(F)F)cc(C(F)(F)F)c4)sc3c2)ccn1 | 1.68 | 3.63

Same assay, conditions: SK-MEL-5, 48 h, read-out: LC50 (the source's name)

Row | Structure (SMILES) | CC50 [µM]
9 | CNC(=O)c1cc(Oc2ccc3nc(NC(=O)c4cc(C(F)(F)F)cc(C(F)(F)F)c4)sc3c2)ccn1 | 7.87

Test system: U-251
Assay: Antiproliferative activity against human U251 cells assessed as cell growth at 10^-8 M after 48 hrs by sulforhodamine B assay
Assay type: functional
Settings: U-251, 48 h, read-out: Activity

Row | Structure (SMILES) | growth at 0.01 µM [%]
10 | CNC(=O)c1cc(Oc2ccc3nc(NC(=O)c4cc(C(F)(F)F)cc(C(F)(F)F)c4)sc3c2)ccn1 | 98

Test system: ACHN
Assay: Antiproliferative activity against human ACHN cells assessed as cell growth at 10^-4 M after 48 hrs by sulforhodamine B assay
Assay type: functional
Settings: read-out: Activity

Row | Structure (SMILES) | growth at 100 µM [%]
11 | CNC(=O)c1cc(Oc2ccc3nc(NC(=O)c4cc(C(F)(F)F)cc(C(F)(F)F)c4)sc3c2)ccn1 | -82

Test system: not listed separately
Assay: Antiproliferative activity against human HOP62 cells assessed as cell growth at 10^-4 M after 48 hrs by sulforhodamine B assay
Assay type: functional
Settings: HOP-62, 48 h, read-out: Activity

Row | Structure (SMILES) | growth at 100 µM [%]
12 | CNC(=O)c1cc(Oc2ccc3nc(NC(=O)c4cc(C(F)(F)F)cc(C(F)(F)F)c4)sc3c2)ccn1 | -71

Test system: not listed separately
Assay: Antiproliferative activity against human HL-60(TB) cells assessed as cell growth at 10^-4 M after 48 hrs by sulforhodamine B assay
Assay type: functional
Settings: HL-60, 48 h, read-out: Activity

Row | Structure (SMILES) | growth at 100 µM [%]
13 | CNC(=O)c1cc(Oc2ccc3nc(NC(=O)c4cc(C(F)(F)F)cc(C(F)(F)F)c4)sc3c2)ccn1 | -45

Test system: NCI-H522
Assay: Antiproliferative activity against human NCI-H522 cells assessed as cell growth at 10^-6 M after 48 hrs by sulforhodamine B assay
Assay type: functional
Settings: NCI-H522, 48 h, read-out: Activity

Row | Structure (SMILES) | growth at 1 µM [%]
14 | CNC(=O)c1cc(Oc2ccc3nc(NC(=O)c4cc(C(F)(F)F)cc(C(F)(F)F)c4)sc3c2)ccn1 | 96

Test system: not listed separately
Assay: Antiproliferative activity against human SW620 cells assessed as cell growth at […] M after 48 hrs by sulforhodamine B assay
Assay type: functional
Settings: SW-620, 48 h, read-out: Activity

Row | Structure (SMILES) | growth at 0.01 µM [%]
15 | CNC(=O)c1cc(Oc2ccc3nc(NC(=O)c4cc(C(F)(F)F)cc(C(F)(F)F)c4)sc3c2)ccn1 | 97

Test system: not listed separately
Assay: Antiproliferative activity against human HCT116 cells assessed as cell growth at 10^-4 M after 48 hrs by sulforhodamine B assay
Assay type: functional
Settings: HCT-116, 48 h, read-out: Activity

Row | Structure (SMILES) | growth at 100 µM [%]
16 | CNC(=O)c1cc(Oc2ccc3nc(NC(=O)c4cc(C(F)(F)F)cc(C(F)(F)F)c4)sc3c2)ccn1 | -84

Test system: MDA-MB-468
Assay: Antiproliferative activity against human MDA-MB-468 cells assessed as cell growth at 10^-7 M after 48 hrs by sulforhodamine B assay
Assay type: functional
Settings: MDA-MB-468, 48 h, read-out: Activity

Row | Structure (SMILES) | growth at 0.1 µM [%]
17 | CNC(=O)c1cc(Oc2ccc3nc(NC(=O)c4cc(C(F)(F)F)cc(C(F)(F)F)c4)sc3c2)ccn1 | 96

Test system: not listed separately
Assay: Antiproliferative activity against human TK10 cells assessed as cell growth at 10^-7 M after 48 hrs by sulforhodamine B assay
Assay type: functional
Settings: TK-10, 48 h, read-out: Activity

Row | Structure (SMILES) | growth at 0.1 µM [%]
18 | CNC(=O)c1cc(Oc2ccc3nc(NC(=O)c4cc(C(F)(F)F)cc(C(F)(F)F)c4)sc3c2)ccn1 | 94

Test system: not listed separately
Assay: Antiproliferative activity against human SW620 cells assessed as growth inhibition after 48 hrs by sulforhodamine B assay
Assay type: functional
Settings: SW-620, 48 h

Row | Structure (SMILES) | GI50 [µM] | TGI [µM]
19 | CNC(=O)c1cc(Oc2ccc3nc(NC(=O)c4cc(C(F)(F)F)cc(C(F)(F)F)c4)sc3c2)ccn1 | 7.56 | 63.8

Same assay, conditions: SW-620, 48 h, read-out: LC50 (the source's name)

Row | Structure (SMILES) | CC50 [µM]
20 | CNC(=O)c1cc(Oc2ccc3nc(NC(=O)c4cc(C(F)(F)F)cc(C(F)(F)F)c4)sc3c2)ccn1 | > 100

Test system: NCI-H23
Assay: Antiproliferative activity against human NCI-H23 cells assessed as cell growth at 10^-7 M after 48 hrs by sulforhodamine B assay
Assay type: functional
Settings: NCI-H23, 48 h, read-out: Activity

Row | Structure (SMILES) | growth at 0.1 µM [%]
21 | CNC(=O)c1cc(Oc2ccc3nc(NC(=O)c4cc(C(F)(F)F)cc(C(F)(F)F)c4)sc3c2)ccn1 | 95

— ChEMBL document CHEMBL3797052 (Eur J Med Chem, 2016)
